Data taken from BigSolDB 2.1.

CC1=CC(=O)c2ccccc2C1=O
Settings	solubility (mole fraction)
in benzene, 299.44 K	0.109
in benzene, 304.83 K	0.13
in benzene, 309.71 K	0.152
in benzene, 313.92 K	0.174
in benzene, 317.75 K	0.197
in benzene, 321.86 K	0.224
in benzene, 326.75 K	0.262
in benzene, 330.75 K	0.297
in benzene, 334.65 K	0.334
in benzene, 338.96 K	0.379
in ethylbenzene, 302.85 K	0.0976
in ethylbenzene, 309.44 K	0.122
in ethylbenzene, 314.77 K	0.146
in ethylbenzene, 319.53 K	0.173
in ethylbenzene, 323.75 K	0.199
in ethylbenzene, 327.93 K	0.228
in ethylbenzene, 331.75 K	0.26
in ethylbenzene, 335.44 K	0.297
in ethylbenzene, 339.42 K	0.342
in ethylbenzene, 343.86 K	0.396
in m-xylene, 301.65 K	0.127
in m-xylene, 307.74 K	0.151
in m-xylene, 312.76 K	0.176
in m-xylene, 317.36 K	0.202
in m-xylene, 321.64 K	0.23
in m-xylene, 325.94 K	0.258
in m-xylene, 329.73 K	0.288
in m-xylene, 333.64 K	0.323
in m-xylene, 337.61 K	0.364
in m-xylene, 341.55 K	0.411
in o-xylene, 302.95 K	0.14
in o-xylene, 309.24 K	0.169
in o-xylene, 314.25 K	0.194
in o-xylene, 318.34 K	0.219
in o-xylene, 322.45 K	0.245
in o-xylene, 326.77 K	0.274
in o-xylene, 330.54 K	0.305
in o-xylene, 334.23 K	0.34
in o-xylene, 338.32 K	0.383
in o-xylene, 342.43 K	0.432
in p-xylene, 302.5 K	0.129
in p-xylene, 309.53 K	0.158
in p-xylene, 314.64 K	0.184
in p-xylene, 318.96 K	0.21
in p-xylene, 323.35 K	0.239
in p-xylene, 327.68 K	0.269
in p-xylene, 332.02 K	0.304
in p-xylene, 335.89 K	0.344
in p-xylene, 340.1 K	0.39
in p-xylene, 344.24 K	0.44
in toluene, 303.44 K	0.119
in toluene, 308.84 K	0.143
in toluene, 313.63 K	0.166
in toluene, 317.65 K	0.189
in toluene, 321.85 K	0.216
in toluene, 325.99 K	0.246
in toluene, 330.04 K	0.277
in toluene, 333.86 K	0.311
in toluene, 337.8 K	0.351
in toluene, 342.59 K	0.404
